Measured values published in ChEMBL document CHEMBL1201862, “PubChem BioAssay data set” (2004).
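Tested at 5 concentrations; 48 h exposure; 96-well plates; endpoints linearly interpolated, else capped at highest concentration. The concentration for 50% growth inhibition is given as GI50.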 The source made the active and inactive calls. Rule as the data show it: active = GI50 up to about 1.1 µM and inactive = higher.

Legend:
Experiment in all cases: inhibition of tumour cell growth, NCI panel, 48 h
[1] = test system: ACHN
[2] = test system: HT-29
[3] = test system: OVCAR-4
[4] = test system: U-251
[5] = test system: SN12C
[6] = test system: UACC-257
[7] = test system: HCT-116
[8] = test system: NCI/ADR-RES
[9] = test system: SK-MEL-2
[10] = test system: CCRF-CEM
[11] = test system: LOX IMVI
[12] = test system: TK-10
[13] = test system: MOLT-4
[14] = test system: SK-MEL-28
[15] = test system: SNB-19
[16] = test system: A549
[17] = test system: IGROV-1
[18] = test system: NCI-H23
[19] = test system: HCC 2998
[20] = test system: SF-268
[21] = test system: MDA-MB-435
[22] = test system: NCI-H460
[23] = test system: T47D
[24] = test system: UACC-62
[25] = test system: HCT-15
[26] = test system: OVCAR-5
[27] = test system: NCI-H226
[28] = test system: Hs-578T
[29] = test system: Malme-3M
[30] = test system: SNB-75
[31] = test system: PC-3
[32] = test system: NCI-H522
[33] = test system: UO-31
[34] = test system: SF-539
[35] = test system: K562
[36] = test system: KM12
[37] = test system: HL-60
[38] = test system: DU-145
[39] = test system: BT-549
[40] = test system: CAKI-1
[41] = test system: M14
[42] = test system: SK-MEL-5
[43] = test system: A498
[44] = test system: MDA-MB-231
[45] = test system: 786-0
[46] = test system: SR
[47] = test system: RXF 393
[48] = test system: EKVX
[49] = test system: OVCAR-8
[50] = test system: HOP-92
[51] = test system: MCF7
[52] = test system: MDA-N
[53] = test system: COLO 205
[54] = test system: RPMI-8226
[55] = test system: SW-620
[56] = test system: SF-295
[57] = test system: SK-OV-3
[58] = test system: HOP-62
[59] = test system: OVCAR-3

Q: Which GI50 [1] does the source give for CCc1c(Cc2cccc3ccccc23)n2c(nc1=O)SCC2OCCO (centres undefined) here?
A: > 100 µM (inactive)

Q: And the GI50 [2]?
A: 55.3 µM (inactive)

Q: What about the GI50 [3] of the same compound?
A: 41.5 µM (inactive)

Q: And the GI50 [4]?
A: 76.9 µM (inactive)

Q: And the GI50 [5]?
A: > 100 µM (inactive)

Q: What about the GI50 [6] of the same compound?
A: > 100 µM (inactive)

Q: What about the GI50 [7] of the same compound?
A: > 100 µM (inactive)

Q: What about the GI50 [8] of the same compound?
A: 81.5 µM (inactive)

Q: And the GI50 [9]?
A: > 100 µM (inactive)

Q: What about the GI50 [10] of the same compound?
A: 19.6 µM (inactive)

Q: What about the GI50 [11] of the same compound?
A: 79.3 µM (inactive)

Q: And the GI50 [12]?
A: > 100 µM (inactive)

Q: And the GI50 [13]?
A: 26.6 µM (inactive)

Q: And the GI50 [14]?
A: > 100 µM (inactive)

Q: And the GI50 [15]?
A: > 100 µM (inactive)

Q: And the GI50 [16]?
A: 77.3 µM (inactive)

Q: What about the GI50 [17] of the same compound?
A: 24.7 µM (inactive)

Q: And the GI50 [18]?
A: 42.8 µM (inactive)

Q: What about the GI50 [19] of the same compound?
A: 64.1 µM (inactive)

Q: What about the GI50 [20] of the same compound?
A: 55.7 µM (inactive)

Q: What about the GI50 [21] of the same compound?
A: 18.2 µM (inactive)

Q: And the GI50 [22]?
A: > 100 µM (inactive)

Q: And the GI50 [23]?
A: 31 µM (inactive)

Q: What about the GI50 [24] of the same compound?
A: 56.5 µM (inactive)

Q: What about the GI50 [25] of the same compound?
A: 43.5 µM

Q: And the GI50 [26]?
A: > 100 µM (inactive)

Q: What about the GI50 [27] of the same compound?
A: > 100 µM (inactive)

Q: And the GI50 [28]?
A: > 100 µM (inactive)

Q: What about the GI50 [29] of the same compound?
A: > 100 µM (inactive)

Q: What about the GI50 [30] of the same compound?
A: > 100 µM (inactive)

Q: And the GI50 [31]?
A: 52.6 µM (inactive)

Q: What about the GI50 [32] of the same compound?
A: 49 µM (inactive)

Q: What about the GI50 [33] of the same compound?
A: > 100 µM (inactive)

Q: What about the GI50 [34] of the same compound?
A: > 100 µM (inactive)

Q: What about the GI50 [35] of the same compound?
A: 30.4 µM (inactive)

Q: What about the GI50 [36] of the same compound?
A: 56.5 µM (inactive)

Q: What about the GI50 [37] of the same compound?
A: 36.9 µM (inactive)

Q: And the GI50 [38]?
A: 88.3 µM (inactive)

Q: And the GI50 [39]?
A: 41.7 µM (inactive)

Q: And the GI50 [40]?
A: > 100 µM (inactive)

Q: And the GI50 [41]?
A: > 100 µM (inactive)

Q: What about the GI50 [42] of the same compound?
A: 95.5 µM (inactive)

Q: And the GI50 [43]?
A: > 100 µM (inactive)

Q: What about the GI50 [44] of the same compound?
A: > 100 µM (inactive)

Q: And the GI50 [45]?
A: > 100 µM (inactive)

Q: What about the GI50 [46] of the same compound?
A: 25.9 µM (inactive)

Q: And the GI50 [47]?
A: > 100 µM (inactive)

Q: And the GI50 [48]?
A: 33.7 µM (inactive)

Q: What about the GI50 [49] of the same compound?
A: 33.1 µM (inactive)

Q: And the GI50 [50]?
A: 0.328 µM (active)

Q: What about the GI50 [51] of the same compound?
A: 50.5 µM (inactive)

Q: And the GI50 [52]?
A: 40.8 µM (inactive)

Q: What about the GI50 [53] of the same compound?
A: > 100 µM (inactive)

Q: What about the GI50 [54] of the same compound?
A: 25.7 µM (inactive)

Q: And the GI50 [55]?
A: 70.5 µM (inactive)

Q: What does the source list for CCc1nnc2sc(-c3ccc(-c4ccccc4[N+](=O)[O-])o3)nn12?
A: GI50 [1]: 62.2 µM (inactive); GI50 [2]: 35.6 µM (inactive); GI50 [3]: 53.1 µM (inactive); GI50 [4]: 40.6 µM (inactive); GI50 [5]: 53 µM (inactive); GI50 [6]: 61.7 µM (inactive); GI50 [7]: 37.3 µM (inactive); GI50 [8]: 27 µM (inactive); GI50 [9]: 28.1 µM (inactive); GI50 [10]: 26.9 µM (inactive); GI50 [11]: 36.2 µM (inactive); GI50 [12]: 75.7 µM (inactive); GI50 [13]: 19.5 µM (inactive); GI50 [15]: 75.3 µM (inactive); GI50 [16]: 36.5 µM (inactive); GI50 [56]: 32.6 µM (inactive); GI50 [17]: 47.9 µM (inactive); GI50 [18]: 32.9 µM (inactive); GI50 [57]: 40 µM (inactive); GI50 [19]: 50.1 µM (inactive); GI50 [20]: 49.1 µM (inactive); GI50 [21]: 20.3 µM (inactive); GI50 [22]: 31 µM (inactive); GI50 [23]: 36.3 µM (inactive); GI50 [24]: 45.7 µM (inactive); GI50 [25]: 30.1 µM; GI50 [26]: 62.2 µM (inactive); GI50 [27]: 14.4 µM (inactive); GI50 [28]: 54.3 µM (inactive); GI50 [29]: > 100 µM (inactive); GI50 [30]: > 100 µM (inactive); GI50 [31]: 42.9 µM (inactive); GI50 [32]: 37.4 µM (inactive); GI50 [33]: 41.9 µM (inactive); GI50 [34]: 29.7 µM (inactive); GI50 [35]: 27.7 µM (inactive); GI50 [36]: 30.8 µM (inactive); GI50 [37]: 24 µM (inactive); GI50 [38]: 66.2 µM (inactive); GI50 [39]: 36.6 µM (inactive); GI50 [40]: 66.4 µM (inactive); GI50 [41]: 37.6 µM (inactive); GI50 [42]: 27.7 µM (inactive); GI50 [43]: 54 µM (inactive); GI50 [44]: 53.1 µM (inactive); GI50 [45]: 54.8 µM (inactive); GI50 [46]: 20.1 µM (inactive); GI50 [47]: 57.9 µM (inactive); GI50 [48]: 21.6 µM (inactive); GI50 [58]: 87.9 µM (inactive); GI50 [49]: 50.7 µM (inactive); GI50 [59]: 32.1 µM (inactive); GI50 [50]: 84.7 µM (inactive); GI50 [51]: 19.7 µM (inactive); GI50 [52]: 19.9 µM (inactive); GI50 [53]: 34.9 µM (inactive); GI50 [54]: 20.7 µM (inactive); GI50 [55]: 34 µM (inactive)

Q: For COC(=O)c1cc(-c2ccc3ccccc3c2)nc(O)c1C#N, which GI50 [1] is on record?
A: > 100 µM (inactive)

Q: What about the GI50 [2] of the same compound?
A: > 100 µM (inactive)

Q: And the GI50 [3]?
A: > 100 µM (inactive)

Q: And the GI50 [4]?
A: > 100 µM (inactive)

Q: And the GI50 [5]?
A: > 100 µM (inactive)

Q: And the GI50 [6]?
A: > 100 µM (inactive)

Q: And the GI50 [7]?
A: > 100 µM (inactive)

Q: And the GI50 [8]?
A: > 100 µM (inactive)

Q: And the GI50 [9]?
A: > 100 µM (inactive)

Q: And the GI50 [11]?
A: > 100 µM (inactive)

Q: And the GI50 [12]?
A: > 100 µM (inactive)

Q: And the GI50 [14]?
A: > 100 µM (inactive)

Q: And the GI50 [15]?
A: > 100 µM (inactive)

Q: What about the GI50 [16] of the same compound?
A: > 100 µM (inactive)

Q: What about the GI50 [56] of the same compound?
A: > 100 µM (inactive)

Q: What about the GI50 [17] of the same compound?
A: > 100 µM (inactive)

Q: What about the GI50 [18] of the same compound?
A: > 100 µM (inactive)

Q: And the GI50 [57]?
A: > 100 µM (inactive)

Q: What about the GI50 [19] of the same compound?
A: 17.1 µM (inactive)

Q: And the GI50 [20]?
A: > 100 µM (inactive)

Q: What about the GI50 [21] of the same compound?
A: > 100 µM (inactive)

Q: What about the GI50 [22] of the same compound?
A: > 100 µM (inactive)

Q: And the GI50 [23]?
A: > 100 µM (inactive)

Q: What about the GI50 [24] of the same compound?
A: > 100 µM (inactive)

Q: And the GI50 [25]?
A: > 100 µM

Q: What about the GI50 [26] of the same compound?
A: > 100 µM (inactive)

Q: And the GI50 [27]?
A: > 100 µM (inactive)

Q: What about the GI50 [28] of the same compound?
A: > 100 µM (inactive)

Q: What about the GI50 [29] of the same compound?
A: > 100 µM (inactive)

Q: And the GI50 [30]?
A: > 100 µM (inactive)

Q: What about the GI50 [31] of the same compound?
A: > 100 µM (inactive)

Q: And the GI50 [32]?
A: > 100 µM (inactive)

Q: What about the GI50 [33] of the same compound?
A: > 100 µM (inactive)

Q: What about the GI50 [34] of the same compound?
A: > 100 µM (inactive)

Q: What about the GI50 [36] of the same compound?
A: > 100 µM (inactive)

Q: And the GI50 [37]?
A: 20.3 µM (inactive)

Q: And the GI50 [38]?
A: > 100 µM (inactive)

Q: What about the GI50 [39] of the same compound?
A: > 100 µM (inactive)

Q: And the GI50 [40]?
A: > 100 µM (inactive)

Q: What about the GI50 [41] of the same compound?
A: > 100 µM (inactive)

Q: What about the GI50 [42] of the same compound?
A: > 100 µM (inactive)

Q: And the GI50 [43]?
A: > 100 µM (inactive)

Q: And the GI50 [44]?
A: > 100 µM (inactive)

Q: What about the GI50 [45] of the same compound?
A: > 100 µM (inactive)

Q: What about the GI50 [46] of the same compound?
A: > 100 µM (inactive)

Q: What about the GI50 [47] of the same compound?
A: > 100 µM (inactive)

Q: And the GI50 [48]?
A: 71.4 µM (inactive)

Q: What about the GI50 [58] of the same compound?
A: > 100 µM (inactive)

Q: And the GI50 [49]?
A: > 100 µM (inactive)

Q: What about the GI50 [59] of the same compound?
A: > 100 µM (inactive)

Q: And the GI50 [50]?
A: > 100 µM (inactive)

Q: And the GI50 [51]?
A: > 100 µM (inactive)

Q: What about the GI50 [52] of the same compound?
A: > 100 µM (inactive)

Q: And the GI50 [53]?
A: > 100 µM (inactive)

Q: And the GI50 [54]?
A: > 100 µM (inactive)

Q: And the GI50 [55]?
A: > 100 µM (inactive)
